Test results: paper PMC11864979, “First-in-class ultralong-target-residence-time p38α inhibitors as a mitosis-targeted therapy for colorectal cancer” (Nature Cancer, 2025)
Where two headings read alike, the source gives them in different places.

Assays:
Experiment in all cases: selectivity profiling in a panel of 340 wild-type kinases (Reaction Biology Europe)
Format in all cases: binding
340 wild-type kinases [1] = biological target: T1, 340 wild-type kinases (Homo sapiens, UniProt O15264)
T1 construct: purchased Reaction Biology Europe
T1 sequence (O15264 1-365): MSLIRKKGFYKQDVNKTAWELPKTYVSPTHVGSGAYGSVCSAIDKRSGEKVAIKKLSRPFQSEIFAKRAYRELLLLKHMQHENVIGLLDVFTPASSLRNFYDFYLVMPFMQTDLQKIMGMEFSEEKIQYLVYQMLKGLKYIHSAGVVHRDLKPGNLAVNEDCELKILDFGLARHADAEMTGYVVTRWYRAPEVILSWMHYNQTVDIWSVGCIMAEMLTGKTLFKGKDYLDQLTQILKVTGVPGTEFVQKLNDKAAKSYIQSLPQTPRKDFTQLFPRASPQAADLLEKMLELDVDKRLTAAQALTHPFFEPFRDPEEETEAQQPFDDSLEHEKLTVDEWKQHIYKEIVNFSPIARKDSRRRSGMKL

340 wild-type kinases [2] = biological target: T2, 340 wild-type kinases (Homo sapiens, UniProt P06239)
T2 construct: purchased Reaction Biology Europe

340 wild-type kinases [3] = biological target: T3, 340 wild-type kinases (Homo sapiens, UniProt P45984)
T3 construct: purchased Reaction Biology Europe

340 wild-type kinases [4] = biological target: T4, 340 wild-type kinases (Homo sapiens, UniProt P49759)
T4 construct: purchased Reaction Biology Europe

340 wild-type kinases [5] = biological target: T5, 340 wild-type kinases (Homo sapiens, UniProt P51451)
T5 construct: purchased Reaction Biology Europe

340 wild-type kinases [6] = biological target: T6, 340 wild-type kinases (Homo sapiens, UniProt P53671)
T6 construct: purchased Reaction Biology Europe

340 wild-type kinases [7] = biological target: T7, 340 wild-type kinases (Homo sapiens, UniProt P53778)
T7 construct: purchased Reaction Biology Europe
T7 sequence (P53778 1-367): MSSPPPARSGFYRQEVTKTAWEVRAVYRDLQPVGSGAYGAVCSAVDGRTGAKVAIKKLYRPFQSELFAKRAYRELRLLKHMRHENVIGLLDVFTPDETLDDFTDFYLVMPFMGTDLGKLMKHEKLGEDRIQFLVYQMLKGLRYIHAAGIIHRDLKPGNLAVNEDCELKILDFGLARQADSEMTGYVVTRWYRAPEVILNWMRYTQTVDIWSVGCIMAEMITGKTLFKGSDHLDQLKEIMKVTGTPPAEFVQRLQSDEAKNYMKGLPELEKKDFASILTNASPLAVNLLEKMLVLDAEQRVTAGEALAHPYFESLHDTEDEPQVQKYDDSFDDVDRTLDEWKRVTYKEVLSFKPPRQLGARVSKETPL

340 wild-type kinases [8] = biological target: T8, 340 wild-type kinases (Homo sapiens, UniProt Q02779)
T8 construct: purchased Reaction Biology Europe

340 wild-type kinases [9] = biological target: T9, 340 wild-type kinases (Homo sapiens, UniProt Q16512)
T9 construct: purchased Reaction Biology Europe

340 wild-type kinases [10] = biological target: T10, 340 wild-type kinases (Homo sapiens, UniProt Q16584)
T10 construct: purchased Reaction Biology Europe

340 wild-type kinases [11] = biological target: T11, 340 wild-type kinases (Homo sapiens, UniProt Q8IW41)
T11 construct: purchased Reaction Biology Europe
T11 sequence (Q8IW41 1-473): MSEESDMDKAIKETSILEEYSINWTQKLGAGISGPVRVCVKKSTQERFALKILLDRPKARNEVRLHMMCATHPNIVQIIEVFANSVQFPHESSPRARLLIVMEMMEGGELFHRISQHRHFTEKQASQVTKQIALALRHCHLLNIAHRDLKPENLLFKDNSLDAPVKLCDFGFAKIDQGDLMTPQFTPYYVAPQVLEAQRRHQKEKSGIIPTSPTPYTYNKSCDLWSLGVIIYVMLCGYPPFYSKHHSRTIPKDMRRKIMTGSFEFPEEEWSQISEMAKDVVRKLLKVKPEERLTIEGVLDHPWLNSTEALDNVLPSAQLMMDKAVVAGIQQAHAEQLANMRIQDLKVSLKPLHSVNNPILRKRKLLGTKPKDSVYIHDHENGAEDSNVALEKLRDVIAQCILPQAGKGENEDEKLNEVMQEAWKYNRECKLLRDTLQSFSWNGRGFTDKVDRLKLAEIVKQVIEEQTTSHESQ

340 wild-type kinases [12] = biological target: T12, 340 wild-type kinases (Homo sapiens, UniProt Q96SB4)
T12 construct: purchased Reaction Biology Europe

340 wild-type kinases [13] = biological target: T13, 340 wild-type kinases (Homo sapiens, UniProt Q9NYY3)
T13 construct: purchased Reaction Biology Europe

T12 sequence (Q96SB4 whole entry): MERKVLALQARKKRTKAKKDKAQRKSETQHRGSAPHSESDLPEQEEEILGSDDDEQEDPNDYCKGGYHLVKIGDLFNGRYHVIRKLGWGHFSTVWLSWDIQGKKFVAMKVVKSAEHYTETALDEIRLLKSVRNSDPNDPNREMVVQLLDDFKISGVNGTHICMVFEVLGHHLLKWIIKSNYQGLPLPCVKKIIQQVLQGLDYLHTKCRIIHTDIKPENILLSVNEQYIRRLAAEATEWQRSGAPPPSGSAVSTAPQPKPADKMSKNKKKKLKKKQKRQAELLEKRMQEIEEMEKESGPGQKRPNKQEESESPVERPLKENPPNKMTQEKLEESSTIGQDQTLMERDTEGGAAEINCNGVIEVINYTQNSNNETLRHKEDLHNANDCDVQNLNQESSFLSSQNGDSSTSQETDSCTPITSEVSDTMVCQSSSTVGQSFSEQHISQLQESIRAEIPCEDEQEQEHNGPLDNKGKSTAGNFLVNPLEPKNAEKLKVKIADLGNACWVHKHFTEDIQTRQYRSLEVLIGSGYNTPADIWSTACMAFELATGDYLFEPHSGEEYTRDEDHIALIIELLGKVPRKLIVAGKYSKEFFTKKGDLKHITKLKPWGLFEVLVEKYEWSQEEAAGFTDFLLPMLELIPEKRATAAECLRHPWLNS
T8 sequence (Q02779 whole entry): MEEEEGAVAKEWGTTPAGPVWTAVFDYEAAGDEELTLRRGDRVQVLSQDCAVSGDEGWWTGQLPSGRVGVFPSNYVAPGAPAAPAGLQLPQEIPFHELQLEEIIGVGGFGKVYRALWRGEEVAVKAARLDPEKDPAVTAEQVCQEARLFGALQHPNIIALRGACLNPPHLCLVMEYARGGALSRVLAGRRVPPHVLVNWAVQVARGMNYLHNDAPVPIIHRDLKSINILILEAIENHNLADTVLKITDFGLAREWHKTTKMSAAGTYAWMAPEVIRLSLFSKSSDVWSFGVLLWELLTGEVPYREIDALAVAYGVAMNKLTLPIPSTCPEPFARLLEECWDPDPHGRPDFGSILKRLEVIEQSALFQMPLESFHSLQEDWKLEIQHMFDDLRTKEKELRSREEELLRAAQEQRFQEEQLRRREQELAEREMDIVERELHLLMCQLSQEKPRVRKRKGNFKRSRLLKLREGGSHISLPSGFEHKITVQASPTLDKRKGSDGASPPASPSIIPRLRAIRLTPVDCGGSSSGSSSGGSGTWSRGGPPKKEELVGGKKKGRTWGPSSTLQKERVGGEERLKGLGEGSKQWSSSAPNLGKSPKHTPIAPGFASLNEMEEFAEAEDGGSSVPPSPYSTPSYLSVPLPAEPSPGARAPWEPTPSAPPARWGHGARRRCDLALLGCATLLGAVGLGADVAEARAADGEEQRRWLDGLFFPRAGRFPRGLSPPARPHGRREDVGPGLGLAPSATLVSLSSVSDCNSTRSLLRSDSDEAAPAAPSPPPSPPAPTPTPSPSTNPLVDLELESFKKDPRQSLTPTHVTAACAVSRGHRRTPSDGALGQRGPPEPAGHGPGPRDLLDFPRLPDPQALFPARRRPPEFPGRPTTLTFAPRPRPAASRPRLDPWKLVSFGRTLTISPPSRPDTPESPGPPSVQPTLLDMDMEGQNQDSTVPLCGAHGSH
T10 sequence (Q16584 whole entry): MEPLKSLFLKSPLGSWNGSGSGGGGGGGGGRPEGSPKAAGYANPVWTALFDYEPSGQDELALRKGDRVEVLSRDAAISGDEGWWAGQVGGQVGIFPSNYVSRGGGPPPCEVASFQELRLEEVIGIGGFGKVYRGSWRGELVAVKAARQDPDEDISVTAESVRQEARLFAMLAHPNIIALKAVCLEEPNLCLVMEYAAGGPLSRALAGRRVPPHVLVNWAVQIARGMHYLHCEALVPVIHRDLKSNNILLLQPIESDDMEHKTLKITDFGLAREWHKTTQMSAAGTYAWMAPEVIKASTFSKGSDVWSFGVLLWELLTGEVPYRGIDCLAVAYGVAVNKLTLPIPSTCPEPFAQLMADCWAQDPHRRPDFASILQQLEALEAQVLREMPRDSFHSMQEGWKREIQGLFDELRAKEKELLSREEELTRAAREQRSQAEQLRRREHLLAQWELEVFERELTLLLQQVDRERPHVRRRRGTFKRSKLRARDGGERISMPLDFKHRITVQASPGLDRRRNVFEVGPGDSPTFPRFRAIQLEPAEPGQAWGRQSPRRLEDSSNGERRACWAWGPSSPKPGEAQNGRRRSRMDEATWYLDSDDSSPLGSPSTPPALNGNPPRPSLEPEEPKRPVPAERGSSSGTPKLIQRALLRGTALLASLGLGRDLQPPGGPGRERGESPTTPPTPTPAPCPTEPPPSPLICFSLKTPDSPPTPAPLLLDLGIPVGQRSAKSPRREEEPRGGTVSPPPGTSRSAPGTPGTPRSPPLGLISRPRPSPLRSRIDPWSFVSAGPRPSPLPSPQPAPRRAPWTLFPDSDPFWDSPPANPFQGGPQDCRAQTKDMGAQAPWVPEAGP
T2 sequence (P06239 whole entry): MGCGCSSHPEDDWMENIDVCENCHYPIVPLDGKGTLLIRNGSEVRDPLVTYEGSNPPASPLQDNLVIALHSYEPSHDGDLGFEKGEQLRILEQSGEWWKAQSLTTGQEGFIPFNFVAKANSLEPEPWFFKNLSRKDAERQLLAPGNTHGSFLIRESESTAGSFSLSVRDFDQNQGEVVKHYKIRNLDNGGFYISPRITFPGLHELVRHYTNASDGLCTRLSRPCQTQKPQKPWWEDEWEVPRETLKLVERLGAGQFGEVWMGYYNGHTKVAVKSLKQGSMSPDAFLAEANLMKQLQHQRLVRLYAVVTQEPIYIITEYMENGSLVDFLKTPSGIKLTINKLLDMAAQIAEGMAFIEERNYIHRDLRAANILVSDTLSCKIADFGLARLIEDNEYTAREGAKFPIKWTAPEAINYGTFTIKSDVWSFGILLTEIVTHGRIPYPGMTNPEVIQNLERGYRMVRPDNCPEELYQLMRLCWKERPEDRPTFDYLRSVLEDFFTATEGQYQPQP
T9 sequence (Q16512 whole entry): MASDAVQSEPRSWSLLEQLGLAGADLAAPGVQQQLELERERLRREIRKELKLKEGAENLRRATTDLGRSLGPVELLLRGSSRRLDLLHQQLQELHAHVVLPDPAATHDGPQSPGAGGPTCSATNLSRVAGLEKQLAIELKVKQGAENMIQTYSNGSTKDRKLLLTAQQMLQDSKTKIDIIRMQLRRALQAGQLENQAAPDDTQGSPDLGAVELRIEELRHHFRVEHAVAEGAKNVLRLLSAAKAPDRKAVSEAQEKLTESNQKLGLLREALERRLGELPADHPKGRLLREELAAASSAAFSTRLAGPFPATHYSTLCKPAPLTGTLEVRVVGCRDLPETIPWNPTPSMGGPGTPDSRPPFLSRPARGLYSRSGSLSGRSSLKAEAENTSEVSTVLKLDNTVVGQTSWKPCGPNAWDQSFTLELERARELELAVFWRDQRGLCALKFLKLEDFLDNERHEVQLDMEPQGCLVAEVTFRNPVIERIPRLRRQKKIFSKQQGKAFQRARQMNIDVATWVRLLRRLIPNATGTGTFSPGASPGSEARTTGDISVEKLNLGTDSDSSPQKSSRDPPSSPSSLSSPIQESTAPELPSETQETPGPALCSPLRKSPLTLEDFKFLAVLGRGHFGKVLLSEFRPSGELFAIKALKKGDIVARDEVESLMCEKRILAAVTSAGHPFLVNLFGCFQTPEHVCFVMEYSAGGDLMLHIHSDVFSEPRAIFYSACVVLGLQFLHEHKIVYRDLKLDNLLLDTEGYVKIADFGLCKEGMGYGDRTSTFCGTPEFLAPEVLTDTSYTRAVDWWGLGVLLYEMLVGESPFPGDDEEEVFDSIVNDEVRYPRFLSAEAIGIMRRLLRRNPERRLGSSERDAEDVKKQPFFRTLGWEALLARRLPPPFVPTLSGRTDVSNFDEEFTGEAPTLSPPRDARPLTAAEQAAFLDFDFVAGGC
T6 sequence (P53671 whole entry): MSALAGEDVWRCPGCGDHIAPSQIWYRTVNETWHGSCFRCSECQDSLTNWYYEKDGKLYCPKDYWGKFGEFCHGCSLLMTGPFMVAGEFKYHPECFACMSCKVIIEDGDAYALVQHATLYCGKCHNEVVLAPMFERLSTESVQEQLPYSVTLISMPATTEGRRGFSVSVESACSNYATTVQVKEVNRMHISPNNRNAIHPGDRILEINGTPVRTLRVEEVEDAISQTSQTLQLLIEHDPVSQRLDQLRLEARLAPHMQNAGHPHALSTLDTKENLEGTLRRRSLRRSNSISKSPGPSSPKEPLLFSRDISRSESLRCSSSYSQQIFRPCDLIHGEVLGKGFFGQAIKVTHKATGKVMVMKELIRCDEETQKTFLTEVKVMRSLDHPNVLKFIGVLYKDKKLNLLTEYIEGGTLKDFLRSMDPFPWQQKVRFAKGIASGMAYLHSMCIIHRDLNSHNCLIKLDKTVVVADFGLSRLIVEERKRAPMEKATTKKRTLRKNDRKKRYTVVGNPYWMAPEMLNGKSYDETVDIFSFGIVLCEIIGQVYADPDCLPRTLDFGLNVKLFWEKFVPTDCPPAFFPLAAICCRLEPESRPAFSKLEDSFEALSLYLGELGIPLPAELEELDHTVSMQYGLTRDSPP
T4 sequence (P49759 whole entry): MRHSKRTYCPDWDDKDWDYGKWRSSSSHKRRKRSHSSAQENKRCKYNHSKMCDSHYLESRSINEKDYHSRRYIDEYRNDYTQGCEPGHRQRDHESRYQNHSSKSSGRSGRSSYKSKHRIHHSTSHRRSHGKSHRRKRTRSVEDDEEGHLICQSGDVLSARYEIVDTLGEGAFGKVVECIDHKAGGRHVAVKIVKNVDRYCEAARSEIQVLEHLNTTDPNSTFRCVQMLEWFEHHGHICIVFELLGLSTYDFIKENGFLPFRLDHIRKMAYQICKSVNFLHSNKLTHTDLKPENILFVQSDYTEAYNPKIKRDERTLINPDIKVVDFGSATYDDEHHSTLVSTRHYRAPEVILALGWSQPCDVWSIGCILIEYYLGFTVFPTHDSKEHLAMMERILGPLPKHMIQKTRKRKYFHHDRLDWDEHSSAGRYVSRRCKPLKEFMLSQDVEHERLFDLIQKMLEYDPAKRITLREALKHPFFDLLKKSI

CNC(=O)c1ccc2c(c1)C(=O)c1ccc(Nc3ccc(F)c(NC(=O)C4CC4)c3)cc1CC2 [Compound 2015]
remaining activity at 0.2 µM (340 wild-type kinases [1]; 0.2 µM 2015, read-out: p38delta residual activity): 101%
remaining activity at 1 µM (340 wild-type kinases [1]; 1 µM 2015, read-out: p38delta residual activity): 90.6%
remaining activity at 0.2 µM (340 wild-type kinases [1]; p38delta, 0.2 µM, read-out: residual activity): 101%
remaining activity at 1 µM (340 wild-type kinases [1]; p38delta, 1 µM, read-out: residual activity): 90.6%
remaining activity at 0.2 µM (340 wild-type kinases [2]; 0.2 µM 2015, read-out: LCK residual activity): 104%
remaining activity at 1 µM (340 wild-type kinases [2]; 1 µM 2015, read-out: LCK residual activity): 95.6%
remaining activity at 0.2 µM (340 wild-type kinases [2]; LCK, 0.2 µM, read-out: residual activity): 104%
remaining activity at 1 µM (340 wild-type kinases [2]; LCK, 1 µM, read-out: residual activity): 95.6%
remaining activity at 0.2 µM (340 wild-type kinases [3]; 0.2 µM 2015, read-out: JNK2 residual activity): 61.1%
remaining activity at 1 µM (340 wild-type kinases [3]; 1 µM 2015, read-out: JNK2 residual activity): 40.4%
remaining activity at 0.2 µM (340 wild-type kinases [3]; JNK2, 0.2 µM, read-out: residual activity): 61.1%
remaining activity at 1 µM (340 wild-type kinases [3]; JNK2, 1 µM, read-out: residual activity): 40.4%
effect on JNK2 (in words) (340 wild-type kinases [3]; panel of 340 kinases, 1 µM and 0.2 µM): moderate influence
remaining activity at 0.2 µM (340 wild-type kinases [4]; 0.2 µM 2015, read-out: CLK1 residual activity): 98.6%
remaining activity at 1 µM (340 wild-type kinases [4]; 1 µM 2015, read-out: CLK1 residual activity): 93%
remaining activity at 0.2 µM (340 wild-type kinases [4]; CLK1, 0.2 µM, read-out: residual activity): 98.6%
remaining activity at 1 µM (340 wild-type kinases [4]; CLK1, 1 µM, read-out: residual activity): 93%
remaining activity at 0.2 µM (340 wild-type kinases [5]; 0.2 µM 2015, read-out: BLK residual activity): 107%
remaining activity at 1 µM (340 wild-type kinases [5]; 1 µM 2015, read-out: BLK residual activity): 104%
remaining activity at 0.2 µM (340 wild-type kinases [5]; BLK, 0.2 µM, read-out: residual activity): 107%
remaining activity at 1 µM (340 wild-type kinases [5]; BLK, 1 µM, read-out: residual activity): 104%
remaining activity at 0.2 µM (340 wild-type kinases [6]; 0.2 µM 2015, read-out: LIMK2 residual activity): 114%
remaining activity at 1 µM (340 wild-type kinases [6]; 1 µM 2015, read-out: LIMK2 residual activity): 103%
remaining activity at 0.2 µM (340 wild-type kinases [6]; LIMK2, 0.2 µM, read-out: residual activity): 114%
remaining activity at 1 µM (340 wild-type kinases [6]; LIMK2, 1 µM, read-out: residual activity): 103%
remaining activity at 0.2 µM (340 wild-type kinases [7]; 0.2 µM 2015, read-out: p38gamma residual activity): 83.5%
remaining activity at 1 µM (340 wild-type kinases [7]; 1 µM 2015, read-out: p38gamma residual activity): 77.7%
remaining activity at 0.2 µM (340 wild-type kinases [7]; p38gamma, 0.2 µM, read-out: residual activity): 83.5%
remaining activity at 1 µM (340 wild-type kinases [7]; p38gamma, 1 µM, read-out: residual activity): 77.7%
remaining activity at 0.2 µM (340 wild-type kinases [8]; 0.2 µM 2015, read-out: MAP3K10 residual activity): 111%
remaining activity at 1 µM (340 wild-type kinases [8]; 1 µM 2015, read-out: MAP3K10 residual activity): 106%
remaining activity at 0.2 µM (340 wild-type kinases [8]; MAP3K10, 0.2 µM, read-out: residual activity): 111%
remaining activity at 1 µM (340 wild-type kinases [8]; MAP3K10, 1 µM, read-out: residual activity): 106%
remaining activity at 0.2 µM (340 wild-type kinases [9]; 0.2 µM 2015, read-out: PRK1 residual activity): 101%
remaining activity at 1 µM (340 wild-type kinases [9]; 1 µM 2015, read-out: PRK1 residual activity): 97.6%
remaining activity at 0.2 µM (340 wild-type kinases [9]; PRK1, 0.2 µM, read-out: residual activity): 101%
remaining activity at 1 µM (340 wild-type kinases [9]; PRK1, 1 µM, read-out: residual activity): 97.6%
remaining activity at 0.2 µM (340 wild-type kinases [10]; 0.2 µM 2015, read-out: MAP3K11 residual activity): 100%
remaining activity at 1 µM (340 wild-type kinases [10]; 1 µM 2015, read-out: MAP3K11 residual activity): 93.8%
remaining activity at 0.2 µM (340 wild-type kinases [10]; MAP3K11, 0.2 µM, read-out: residual activity): 100%
remaining activity at 1 µM (340 wild-type kinases [10]; MAP3K11, 1 µM, read-out: residual activity): 93.8%
remaining activity at 0.2 µM (340 wild-type kinases [11]; 0.2 µM 2015, read-out: MAPKAPK5 residual activity): 123%
remaining activity at 1 µM (340 wild-type kinases [11]; 1 µM 2015, read-out: MAPKAPK5 residual activity): 109%
remaining activity at 0.2 µM (340 wild-type kinases [11]; MAPKAPK5, 0.2 µM, read-out: residual activity): 123%
remaining activity at 1 µM (340 wild-type kinases [11]; MAPKAPK5, 1 µM, read-out: residual activity): 109%
remaining activity at 0.2 µM (340 wild-type kinases [12]; 0.2 µM 2015, read-out: SRPK1 residual activity): 108%
remaining activity at 1 µM (340 wild-type kinases [12]; 1 µM 2015, read-out: SRPK1 residual activity): 105%
remaining activity at 0.2 µM (340 wild-type kinases [12]; SRPK1, 0.2 µM, read-out: residual activity): 108%
remaining activity at 1 µM (340 wild-type kinases [12]; SRPK1, 1 µM, read-out: residual activity): 105%
remaining activity at 0.2 µM (340 wild-type kinases [13]; 0.2 µM 2015, read-out: SNK residual activity): 103%
remaining activity at 1 µM (340 wild-type kinases [13]; 1 µM 2015, read-out: SNK residual activity): 97.3%
remaining activity at 0.2 µM (340 wild-type kinases [13]; SNK, 0.2 µM, read-out: residual activity): 103%
remaining activity at 1 µM (340 wild-type kinases [13]; SNK, 1 µM, read-out: residual activity): 97.3%
